Data: patent US11464749B2, “Bismuth-thiol compositions and methods of use” (Microbion Corporation, priority 2018, dated 2022)
In brackets after ≈: the same amount, converted by molar mass. Like-named read-outs stand apart in the source and are kept apart here.

Columns and labels:
Neisseria gonorrhoeae = experiment: Agar dilution MIC (Example 11); type: cell-based; conditions: read-out: MIC
[1] = system: Staphylococcus aureus (MRSA); experiment: Broth microdilution MIC (Example 11)
E. faecalis = experiment: Broth microdilution MIC (Example 11); conditions: Enterococcus faecalis, VRE, VRE Lev^R Cip^R Ery^R
S. pneumoniae = experiment: Broth microdilution MIC (Example 11); conditions: Streptococcus pneumoniae
S. pyogenes = experiment: Broth microdilution MIC (Example 11); conditions: Streptococcus pyogenes
S. agalactiae = experiment: Broth microdilution MIC (Example 11); conditions: Streptococcus agalactiae
Escherichia coli = experiment: Broth microdilution MIC (Example 12)
Klebsiella pneumoniae = experiment: Broth microdilution MIC (Example 12)
Pseudomonas aeruginosa = experiment: Broth microdilution MIC (Example 12)
Acinetobacter baumannii = experiment: Broth microdilution MIC (Example 12)
[2] = system: vancomycin-intermediate Staphylococcus aureus (VISA); experiment: Broth microdilution MIC (Example 12)
Haemophilus influenzae = experiment: Broth microdilution MIC against Haemophilus influenzae clinical isolates; conditions: Haemophilus influenzae
[3] = ATCC29213|MRSA|MSSA, S. aureus MMX 101 (ATCC 29213), QC, MSSA
[4] = MRSA, S. aureus MMX 5373, MRSA Lev^R Cip^R CC^R Ery^R Ox^R
[5] = MRSA, S. aureus MMX 6311, MRSA Lev^R Cip^R CC^R Ery^R Ox^R
[6] = MRSA, S. aureus MMX 9203, MRSA Lev^R Cip^R Ery^R Ox^R
[7] = MRSA, S. aureus MMX 9204, MRSA Lev^R Cip^R Ery^R Ox^R
[8] = MRSA, S. aureus MMX 9205, MRSA Lev^R Cip^R CC^R Ery^R Ox^R
[9] = ATCC49619, S. pneumoniae MMX 6837 (ATCC 49619), QC
[10] = S. pneumoniae MMX 880, Lev^R SXT^R CC^R Ery^R Pen^R
[11] = S. pneumoniae MMX 937, Mem^R SXT^R CC^R Ery^R Pen^R
[12] = S. pneumoniae MMX 3959, CC^R Ery^R
[13] = S. pneumoniae MMX 5440, Mem^R SXT^R CC^R Ery^R Pen^R
[14] = S. pneumoniae MMX 5445, Mem^R SXT^R CC^R Ery^R Pen^R
[15] = S. pneumoniae MMX 8133, Mem^R SXT^R CC^R Ery^R Pen^R
[16] = S. agalactiae MMX 3741, ERY^R CC^R
[17] = S. agalactiae MMX 3743, ERY^R CC^R
[18] = S. agalactiae MMX 4077, ERY^R CC^R
[19] = S. agalactiae MMX 4079, ERY^R CC^R Pen^R MEM^R
[20] = S. agalactiae MMX 4086, ERY^R CC^R

Compound: CO/N=C(\C(=O)N[C@@H]1C(=O)N2C(C(=O)O)=C(CSc3nc(=O)c(=O)[nH]n3C)CS[C@H]12)c1csc(N)n1 [Ceftriaxone]
- MIC (Neisseria gonorrhoeae; ATCC49226, N. gonorrhoeae MMX 683 (ATCC 49226), QC): 0.015 µg/mL (≈ 0.027 µM)
- MIC (Neisseria gonorrhoeae; N. gonorrhoeae MMX 6757, CTX NS): 1 µg/mL (≈ 1.8 µM)
- MIC (Neisseria gonorrhoeae; N. gonorrhoeae MMX 6791, CIP^R): 0.06 µg/mL (≈ 0.108 µM)
- MIC (Neisseria gonorrhoeae; N. gonorrhoeae MMX 6792, CIP^R): 0.06 µg/mL (≈ 0.108 µM)
- MIC (Neisseria gonorrhoeae; N. gonorrhoeae MMX 6793, CIP^R): 0.03 µg/mL (≈ 0.0541 µM)

Compound: CC[C@H]1OC(=O)[C@H](C)[C@@H](O[C@H]2C[C@@](C)(OC)[C@@H](O)[C@H](C)O2)[C@H](C)[C@@H](O[C@@H]2O[C@H](C)C[C@H](N(C)C)[C@H]2O)[C@](C)(O)C[C@@H](C)C(=O)[C@H](C)[C@@H](O)[C@]1(C)O [Erythromycin]
- MIC [1, 3]: 0.5 µg/mL (≈ 0.681 µM)
- MIC [1, 4]: > 64 µg/mL
- MIC [1, 5]: > 64 µg/mL
- MIC [1, 6]: > 64 µg/mL
- MIC [1, 7]: > 64 µg/mL
- MIC [1, 8]: > 64 µg/mL
- MIC (E. faecalis; E. faecalis MMX 8960): > 64 µg/mL
- MIC (E. faecalis; E. faecalis MMX 8961): > 64 µg/mL
- MIC (E. faecalis; E. faecalis MMX 8962): > 64 µg/mL
- MIC (S. pneumoniae; [9]): 0.03 µg/mL (≈ 0.0409 µM)
- MIC (S. pneumoniae; [10]): > 8 µg/mL
- MIC (S. pneumoniae; [11]): > 8 µg/mL
- MIC (S. pneumoniae; [12]): > 8 µg/mL
- MIC (S. pneumoniae; [13]): > 8 µg/mL
- MIC (S. pneumoniae; [14]): > 8 µg/mL
- MIC (S. pneumoniae; [15]): > 8 µg/mL
- MIC (S. pyogenes; S. pyogenes MMX 3068, Ery^R): > 8 µg/mL
- MIC (S. pyogenes; S. pyogenes MMX 3820, ERY^R CLI^R): > 8 µg/mL
- MIC (S. pyogenes; S. pyogenes MMX 3919, ERY^R): > 8 µg/mL
- MIC (S. pyogenes; S. pyogenes MMX 3929, ERY^R CC^R): > 8 µg/mL
- MIC (S. pyogenes; S. pyogenes MMX 5091, ERY^R CC^R): > 8 µg/mL
- MIC (S. agalactiae; [16]): 8 µg/mL (≈ 10.9 µM)
- MIC (S. agalactiae; [17]): > 8 µg/mL
- MIC (S. agalactiae; [18]): > 8 µg/mL
- MIC (S. agalactiae; [19]): > 8 µg/mL
- MIC (S. agalactiae; [20]): > 8 µg/mL

Compound: C[C@H]1COc2c(N3CCN(C)CC3)c(F)cc3c(=O)c(C(=O)O)cn1c23 [LVX]
- MIC (Escherichia coli; E. coli ATCC 35218, ESBL): ≤0.008 µg/mL
- MIC (Escherichia coli; E. coli ATCC 35218, QC organism (Table 102)): ≤0.008 µg/mL
- MIC (Escherichia coli; E. coli ATCC BAA-2471, NDM): >8 µg/mL
- MIC (Escherichia coli; E. coli CDC 114, ESBL/KPC): 4 µg/mL (≈ 11.1 µM)
- MIC (Escherichia coli; E. coli CDC 118, ESBL/NDM): 8 µg/mL (≈ 22.1 µM)
- MIC (Escherichia coli; E. coli CDC 435, NDM): >8 µg/mL
- MIC (Escherichia coli; E. coli CDC 451, KPC): >8 µg/mL
- MIC (Escherichia coli; E. coli CDC 503, ESBL/NDM): >8 µg/mL
- MIC (Escherichia coli; E. coli MMX 5745, KPC): 8 µg/mL (≈ 22.1 µM)
- MIC (Escherichia coli; E. coli MMX 5755, ESBL): 8 µg/mL (≈ 22.1 µM)
- MIC (Escherichia coli; E. coli MMX 5756, ESBL): 4 µg/mL (≈ 11.1 µM)
- MIC (Escherichia coli; E. coli MMX 5758, ESBL): 8 µg/mL (≈ 22.1 µM)
- MIC (Klebsiella pneumoniae; K. pneumoniae ATCC BAA-1705, ESBL/KPC): >8 µg/mL
- MIC (Klebsiella pneumoniae; K. pneumoniae ATCC BAA-1705, QC organism (Table 102)): >8 µg/mL
- MIC (Klebsiella pneumoniae; K. pneumoniae CDC 112, KPC): 4 µg/mL (≈ 11.1 µM)
- MIC (Klebsiella pneumoniae; K. pneumoniae CDC 113, ESBL/KPC): 4 µg/mL (≈ 11.1 µM)
- MIC (Klebsiella pneumoniae; K. pneumoniae CDC 115, ESBL/KPC): >8 µg/mL
- MIC (Klebsiella pneumoniae; K. pneumoniae CDC 120, ESBL/KPC): >8 µg/mL
- MIC (Klebsiella pneumoniae; K. pneumoniae CDC 126, ESBL/KPC): 0.015 µg/mL (≈ 0.0415 µM)
- MIC (Klebsiella pneumoniae; K. pneumoniae CDC 129, ESBL/KPC): >8 µg/mL
- MIC (Klebsiella pneumoniae; K. pneumoniae CDC 135, ESBL/VIM): >8 µg/mL
- MIC (Klebsiella pneumoniae; K. pneumoniae CDC 138, ESBL/NDM): >8 µg/mL
- MIC (Klebsiella pneumoniae; K. pneumoniae CDC 158, ESBL/NDM/OXA): 4 µg/mL (≈ 11.1 µM)
- MIC (Klebsiella pneumoniae; K. pneumoniae MMX 9029, ESBL): 0.12 µg/mL (≈ 0.332 µM)
- MIC (Pseudomonas aeruginosa; P. aeruginosa CDC 230, VIM/OXA): 8 µg/mL (≈ 22.1 µM)
- MIC (Pseudomonas aeruginosa; P. aeruginosa CDC 231, KPC/OXA): >8 µg/mL
- MIC (Pseudomonas aeruginosa; P. aeruginosa CDC 241, IMP/OXA): 8 µg/mL (≈ 22.1 µM)
- MIC (Pseudomonas aeruginosa; P. aeruginosa CDC 246, NDM/OXA): >8 µg/mL
- MIC (Pseudomonas aeruginosa; P. aeruginosa CDC 250, NDM/OXA): >8 µg/mL
- MIC (Pseudomonas aeruginosa; P. aeruginosa CDC 356, KPC): 0.12 µg/mL (≈ 0.332 µM)
- MIC (Pseudomonas aeruginosa; P. aeruginosa CDC 439, IMP): 8 µg/mL (≈ 22.1 µM)
- MIC (Pseudomonas aeruginosa; P. aeruginosa CDC 444, VIM): 8 µg/mL (≈ 22.1 µM)
- MIC (Pseudomonas aeruginosa; P. aeruginosa CDC 457, VIM): >8 µg/mL
- MIC (Pseudomonas aeruginosa; P. aeruginosa CDC 516, KPC/AmpC): 0.25 µg/mL (≈ 0.692 µM)
- MIC (Pseudomonas aeruginosa; P. aeruginosa CDC 518, KPC/AmpC): >8 µg/mL
- MIC (Acinetobacter baumannii; A. baumannii CDC 273, ESBL/OXA): >8 µg/mL
- MIC (Acinetobacter baumannii; A. baumannii CDC 274, ESBL/OXA): 8 µg/mL (≈ 22.1 µM)
- MIC (Acinetobacter baumannii; A. baumannii CDC 275, ESBL/OXA): 4 µg/mL (≈ 11.1 µM)
- MIC (Acinetobacter baumannii; A. baumannii CDC 277, ESBL/OXA): 8 µg/mL (≈ 22.1 µM)
- MIC (Acinetobacter baumannii; A. baumannii CDC 284, ESBL/OXA): 8 µg/mL (≈ 22.1 µM)
- MIC (Acinetobacter baumannii; A. baumannii CDC 307, OXA): 8 µg/mL (≈ 22.1 µM)
- MIC (Acinetobacter baumannii; A. baumannii CDC 308, ESBL/OXA): 4 µg/mL (≈ 11.1 µM)
- MIC (Acinetobacter baumannii; A. baumannii CDC 311, OXA): 2 µg/mL (≈ 5.53 µM)
- MIC (Acinetobacter baumannii; A. baumannii CDC 312, OXA): 2 µg/mL (≈ 5.53 µM)
- MIC (Acinetobacter baumannii; A. baumannii CDC 313, ESBL/OXA): 2 µg/mL (≈ 5.53 µM)
- MIC (Acinetobacter baumannii; A. baumannii NCTC 13304, OXA): 1 µg/mL (≈ 2.77 µM)
- MIC ([2]; S. aureus NRS 1 (hVISA)): 4 µg/mL (≈ 11.1 µM)
- MIC ([2]; S. aureus NRS 2): 4 µg/mL (≈ 11.1 µM)
- MIC ([2]; S. aureus NRS 3): >8 µg/mL
- MIC ([2]; S. aureus NRS 4): 4 µg/mL (≈ 11.1 µM)
- MIC ([2]; S. aureus NRS 13): 0.12 µg/mL (≈ 0.332 µM)
- MIC ([2]; S. aureus NRS 18): 4 µg/mL (≈ 11.1 µM)
- MIC ([2]; S. aureus NRS 22): 8 µg/mL (≈ 22.1 µM)
- MIC ([2]; S. aureus NRS 24 (hVISA)): >8 µg/mL
- MIC ([2]; S. aureus NRS 27): 8 µg/mL (≈ 22.1 µM)

Compound: Cc1onc(-c2ccccc2)c1C(=O)N[C@@H]1C(=O)N2[C@@H]1SC(C)(C)[C@@H]2C(=O)O [Oxacillin]
- MIC [1, 5]: 32 µg/mL (≈ 79.7 µM)
- MIC (E. faecalis; E. faecalis MMX 8962): 16 µg/mL (≈ 39.9 µM)

Compound: CC1(C)S[C@@H]2[C@H](NC(=O)[C@H](N)c3ccccc3)C(=O)N2[C@H]1C(=O)O [ampicillin, Ampicillin]
- MIC50 (Haemophilus influenzae): 2 µg/mL (≈ 5.72 µM)
- MIC90 (Haemophilus influenzae): 4 µg/mL (≈ 11.4 µM)

Compound: CN[C@H](CC(C)C)C(=O)N[C@H]1C(=O)N[C@@H](CC(N)=O)C(=O)N[C@H]2C(=O)N[C@H]3C(=O)N[C@H](C(=O)N[C@H](C(=O)O)c4cc(O)cc(O)c4-c4cc3ccc4O)[C@H](O)c3ccc(c(Cl)c3)Oc3cc2cc(c3O[C@@H]2O[C@H](CO)[C@@H](O)[C@H](O)[C@H]2O[C@H]2C[C@](C)(N)[C@H](O)[C@H](C)O2)Oc2ccc(cc2Cl)[C@H]1O [vancomycin]
- MIC [1, 3]: 1 µg/mL (≈ 0.69 µM)
- MIC [1, 4]: 2 µg/mL (≈ 1.38 µM)
- MIC [1, 5]: 0.25 µg/mL (≈ 0.173 µM)
- MIC [1, 6]: 2 µg/mL (≈ 1.38 µM)
- MIC [1, 7]: 1 µg/mL (≈ 0.69 µM)
- MIC [1, 8]: 2 µg/mL (≈ 1.38 µM)
- MIC (S. pneumoniae; [9]): 0.25 µg/mL (≈ 0.173 µM)
- MIC (S. pneumoniae; [10]): 0.5 µg/mL (≈ 0.345 µM)
- MIC (S. pneumoniae; [11]): 0.5 µg/mL (≈ 0.345 µM)
- MIC (S. pneumoniae; [12]): 0.5 µg/mL (≈ 0.345 µM)
- MIC (S. pneumoniae; [13]): 0.25 µg/mL (≈ 0.173 µM)
- MIC (S. pneumoniae; [14]): 0.25 µg/mL (≈ 0.173 µM)
- MIC (S. pneumoniae; [15]): 0.25 µg/mL (≈ 0.173 µM)
- MIC (S. pyogenes): 0.5 µg/mL (≈ 0.345 µM)
- MIC (S. agalactiae; [16]): 0.5 µg/mL (≈ 0.345 µM)
- MIC (S. agalactiae; [17]): 0.5 µg/mL (≈ 0.345 µM)
- MIC (S. agalactiae; [18]): 0.5 µg/mL (≈ 0.345 µM)
- MIC (S. agalactiae; [19]): 2 µg/mL (≈ 1.38 µM)
- MIC (S. agalactiae; [20]): 1 µg/mL (≈ 0.69 µM)
- MIC ([2]; Staphylococcus aureus, NRS13 / VISA, read-out: MIC values): 2 µg/mL (≈ 1.38 µM)
